Test results as given in publication PMC6520522, “In vitro and in vivo Metabolism of a Potent Inhibitor of Soluble Epoxide Hydrolase, 1-(1-Propionylpiperidin-4-yl)-3-(4-(trifluoromethoxy)phenyl)urea” (Frontiers in Pharmacology, 2019).

Assays:
[1] = Urine levels of TPPU and metabolites after single oral dose in rats; assay type: in vivo; settings: male, Sprague Dawley, rat, single oral dose 10 mg/kg TPPU, n = 3; for concentration at 8 h: 8h post dose; for concentration at 12 h: 12h post dose; for concentration at 24 h: 24h post dose; for concentration at 48 h: 48h post dose; for concentration at 72 h: 72h post dose
[2] = as above; assay type: in vivo; settings: rat, single oral dose 10 mg/kg TPPU; for Cmax: male, Sprague Dawley, urine
Experimental: (§1) Healthy male rats (Sprague Dawley, n = 4) were housed in temperature-controlled housing with ad libitum standard chow and drinking water. Each rat received TPPU (dissolved in 0.5 mL PEG400) at a dose of 10 mg/kg by oral gavage in order to generate significant amounts of metabolites while corresponding to previous efficacious concentration doses. Both blood and urine samples were collected. Blood samples (10 μL) at time points of 0 (before dosing), 0.25, 0.5, 1, 2, 4, 8, 12, 24, 48, and 72 h post dose were collected from the tail vein. Collected blood samples were transferred to Eppendorf tubes containing 90 μL of EDTA solution (0.1% EDTA and 0.1% acetic acid) and were immediately shaken to avoid blood coagulation. The urine and feces samples were passively collected at the time points of 8, 12, 24, 48, and 72 h post dose. TAPU (10 μL) of 1 μM in methanol was added in each blood and urine sample as an internal standard solution. The blood sample extraction was performed with 200 μL ethyl acetate by liquid-liquid extraction. The representative urine samples were subjected to protein precipitation prior to analysis of TPPU and Phase I metabolites. Briefly, urine (10 μL) was treated with 50 μL acetonitrile. After vortex mixing and centrifugation, the supernatant was collected. The feces samples (50–100 mg) were extracted using 600 μL extraction solution (MeOH: EA = 1:1). The mixtures were kept at −20°C overnight to give efficient extraction of TPPU and its metabolites. On day 2, after vortex mixing and centrifugation, the supernatant was collected. The remaining residue was extracted an additional time with 300 μL extraction solution, and the supernatant was combined after centrifugation. The collected supernatants were dried using a speed vacuum concentrator and reconstituted in 50 μL of 100 nM CUDA solution in methanol. In addition, urine (10 μL) was diluted with water (50 μL) and then subjected to analysis of glucuronide or sulfate conjugates.
(§2) LC-MS/MS analysis was conducted on an Agilent SL 1200 series LC system (Agilent, Palo Alto, CA) connected to a 4,000 Qtrap mass spectrometer (Applied Biosystems Instrument Corporation, Foster City, CA) with Turbo V ion source. Liquid chromatography was performed on a Kinetex® C18 column (100 × 2.1 mm, 1.7 μm). Three μL solution was injected onto the column held at 45°C for analysis. Mobile phase A and B were water with 0.1% acetic acid and acetonitrile with 0.1% acetic acid, respectively. The LC flow rate was 300 μL/min.
(§3) The mass spectrometer was operated in both negative and positive modes. Three different scan types were employed to perform mass spectrometry analysis, including product ion scan, precursor ion scan (optimized parameters in Table S4) and MRM scan (optimized parameters in Table S5).

[3] = Blood pharmacokinetics of TPPU and its metabolites after single oral dose in rats; assay type: in vivo
Experimental: as §1, §2, §3

[4] = In vitro metabolism of TPPU in liver S9 fractions; assay type: in vitro ADME, human, monkey, dog, rat, mouse
Experimental: The in vitro study of TPPU metabolism was conducted following previous methods as described (Watanabe and Hammock, [2001]). Briefly, 1 μL of TPPU (1 mM in DMSO; [TPPU]final = 10 μM) was mixed with 94 μL of diluted liver S9 fractions (final, 0.05 mg protein/mL) from human, monkey, dog, rat, and mouse and incubations were conducted in a 10 mL glass vial. After 5 min preincubation at 37°C, the reaction was initiated by adding 5 μL of NADPH regeneration solution. The NADPH regeneration solution was prepared by mixing 50 μL of NADP^+ (100 mM), 50 μL of G6P (500 mM), 50 μL of G6PDH (100 Unit/mL), and 100 μL of sodium phosphate buffer. Incubation without NADPH regeneration solution was used as control. Reactions were kept for 2 h and terminated by addition of 100 μL of ice-cold methanol containing CUDA (200 nM) as an internal standard. The mixture was followed by vigorous mixing for 2 min and centrifuging at 10,000^*g for 10 min. Each supernatant was transferred to an HPLC vial and kept under 4°C until LC-MS analysis.
as §2

[5] = Feces levels of TPPU and metabolites after single oral dose in rats; assay type: in vivo; settings: rat, single oral dose 10 mg/kg TPPU; for concentration at 8 h: 8h post dose; for concentration at 8 h / concentration at 12 h / concentration at 24 h / concentration at 48 h / concentration at 72 h: n = 3; for concentration at 12 h: 12h post dose; for concentration at 24 h: 24h post dose; for concentration at 48 h: 48h post dose; for concentration at 72 h: 72h post dose
recombinant human sEH = target: T1, recombinant human sEH (Homo sapiens, UniProt P34913); assay: sEH inhibition potency, CMNPC fluorescent assay; assay type: biochemical
T1 sequence (P34913 1-555): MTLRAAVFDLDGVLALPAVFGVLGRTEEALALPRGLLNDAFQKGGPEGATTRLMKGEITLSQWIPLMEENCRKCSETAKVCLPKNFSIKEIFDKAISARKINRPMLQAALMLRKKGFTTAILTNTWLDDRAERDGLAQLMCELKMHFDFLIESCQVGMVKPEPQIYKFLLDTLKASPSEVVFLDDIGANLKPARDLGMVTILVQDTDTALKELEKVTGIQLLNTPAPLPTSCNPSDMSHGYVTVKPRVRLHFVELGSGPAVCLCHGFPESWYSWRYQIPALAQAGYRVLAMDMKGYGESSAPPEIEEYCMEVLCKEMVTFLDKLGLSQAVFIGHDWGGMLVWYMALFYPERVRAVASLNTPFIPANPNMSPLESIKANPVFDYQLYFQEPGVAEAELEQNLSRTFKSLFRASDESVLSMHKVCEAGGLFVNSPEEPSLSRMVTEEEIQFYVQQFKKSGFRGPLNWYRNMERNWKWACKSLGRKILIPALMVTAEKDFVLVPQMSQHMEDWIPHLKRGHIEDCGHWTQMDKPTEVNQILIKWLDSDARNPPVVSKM
Experimental: Briefly, recombinant human sEH [1 nM in sodium phosphate buffer (0.1 M, pH = 7.4, 0.1 mg/mL BSA)] was incubated with each analyte (0.1 < [I]final < 10,000 nM) at 30°C for 5 min. Then, the reaction was started with the addition to CMNPC ([S]final = 5 μM). The reaction was monitored kinetically for 10 min at 30°C. The formation of the fluorescent product 6-methoxynaphthaldehyde (λexcitation = 330 nm, λemission = 465 nm, 30°C) was measured every 30 s. IC50 values were determined by regression of the remaining activity in function of the inhibitor concentrations. Assays were run in triplicate and IC50 values are the averages of three replicates.

Compound: CCC(=O)N1CCC(NC(=O)Nc2ccc(OC(F)(F)F)cc2)CC1 [TPPU, 1-(1-propionylpiperidin-4-yl)-3-(4-(trifluoromethoxy)phenyl)urea]
- concentration at 8 h [1]: 5.7 ng/mL
- concentration at 12 h [1]: 5.1 ng/mL
- concentration at 24 h [1]: 1.6 ng/mL
- concentration at 48 h [1]: 4.6 ng/mL
- concentration at 72 h [1]: 1.1 ng/mL
- Cmax [2]: 5700 ng/mL
- time of Cmax in urine [2]: 8 h
- share of the TPPU nucleus in the blood ([3]; rat blood, oral 10 mg/kg TPPU): over 90%
- TPPU remaining after incubation with liver S9 fractions ([4]; 2 h of incubation, TPPU 10 μM, 0.05 mg protein/mL): over 90%
- concentration at 8 h ([5]; male, Sprague Dawley, feces): 1.8 ng/mL
- concentration at 12 h ([5]; male, Sprague Dawley, feces): 2.4 ng/mL
- concentration at 24 h ([5]; male, Sprague Dawley, feces): 1.9 ng/mL
- concentration at 48 h ([5]; male, Sprague Dawley, feces): 7 ng/mL
- concentration at 72 h ([5]; male, Sprague Dawley, feces): 1.5 ng/mL
- Cmax ([5]; male, Sprague Dawley, feces): 24000 ng/mL
- time of Cmax in feces [5]: 12 h

Compound: CC(O)C(=O)N1CCC(NC(=O)Nc2ccc(OC(F)(F)F)cc2)CC1 (centres unmarked) [Compound M1, 1-(1-(2-hydroxypropanoyl)piperidin-4-yl)-3-(4-(trifluoromethoxy)phenyl)urea]
- concentration at 8 h [1]: 8 ng/mL
- concentration at 12 h [1]: 1.2 ng/mL
- concentration at 24 h [1]: 5.6 ng/mL
- concentration at 48 h [1]: 3.6 ng/mL
- concentration at 72 h [1]: 2.1 ng/mL
- Cmax [2]: 12000 ng/mL
- time of Cmax in urine [2]: 12 h
- IC50 (recombinant human sEH; CMNPC fluorescent assay, recombinant human sEH 1 nM, 30°C, average of three replicates, read-out: HsEH IC50): 3 ± 0.5 nM
- fold more potent than M2 toward human sEH (recombinant human sEH; ratio of IC50 values, versus M2): ~ 5 fold
- half-life ([3]; male, Sprague Dawley, rat, whole blood, po, 10 mg/kg, oral gavage 10 mg/kg, n = 4, read-out: T1/2 (half-life) (converted)): ~20 h
- T1/2 (half-life) ([3]; rat blood, oral gavage 10 mg/kg, n = 4, 10 mg/kg): 20 ± 3 h
- share of the total TPPU-related exposure in blood ([3]; rat blood, single oral dose of TPPU, over 72 h): ~ 9.6%
- formation of metabolite in liver S9 fractions ([4]; with NADPH regeneration system, rat, mouse, dog, monkey, human, 2 h): found in all species tested
- formation of metabolite in liver S9 fractions in the absence of a NADPH generation system ([4]; without NADPH, liver S9 fractions (Figure S1: human)): failed to be detected
- concentration at 8 h ([5]; male, Sprague Dawley, feces): 3.7 ng/mL
- concentration at 12 h ([5]; male, Sprague Dawley, feces): 5.7 ng/mL
- concentration at 24 h ([5]; male, Sprague Dawley, feces): 1.1 ng/mL
- concentration at 48 h ([5]; male, Sprague Dawley, feces): 8.8 ng/mL
- concentration at 72 h ([5]; male, Sprague Dawley, feces): 4.4 ng/mL
